Assay results reported in patent publication US20230242915A1, “SMALL INTERFERING DEOXYRIBONUCLEIC ACID (SIDNA) AGAINST METALLO-BETA LACTAMASE GENE” (priority 2021, published 2023).
{FAM} = 6-FAM fluorescein dye; {TAMRA} = TAMRA dye

Experiments:
[1] = tested on: imipenem-resistant Pseudomonas aeruginosa; assay: chronic Pseudomonas aeruginosa lung infection model, lung histology; assay type: in vivo; conditions: infected mice, imipenem in combination with siDNA (with chitosan), 3 days of treatment; compared with FIG. 5A mouse
Protocol: In this example, the effect of an exemplary siDNA on an exemplary imipenem-resistant Pseudomonas aeruginosa was assessed in 40 mice with chronic Pseudomonas aeruginosa lung infection. For this purpose, a 1% w/v concentration of chitosan polymer was prepared, followed by preparing two different ratios of chitosan 1% w/v to an exemplary siDNA—in phosphate buffered saline (PBS)—including an exemplary 1:1 ration and an exemplary 0.5:1 ratio.
A chronic Pseudomonas aeruginosa lung infection model (using imipenem-resistant Pseudomonas aeruginosa) was established in 40 mice (25-30 g). Exemplary mice were randomly divided into three groups (each group comprising 10 mice) including: i) an exemplary control group that only received imipenem after acquiring chronic infection, ii) an exemplary first group that received imipenem in combination with an exemplary siDNA (ratio 0.5:1 of chitosan 1% w/v to an exemplary siDNA) after acquiring chronic infection, and iii) an exemplary second group that received imipenem in combination with an exemplary siDNA (ratio 1:1 of chitosan 1% w/v to an exemplary siDNA) after acquiring chronic infection. […] The level of tissue damage in an exemplary control group, first group, and second group was observed and analyzed by light microscopy. […]

[2] = tested on: Pseudomonas aeruginosa harboring blaIMP-1 gene; assay: imipenem MIC assay (broth dilution) on transformed Pseudomonas aeruginosa; assay type: cell-based
Protocol: In this example, the synthesized siDNA in “Example 1” (comprising exemplary sense and antisense strands set forth in SEQ ID NO: 1 and 2, respectively) was cloned into Pseudomonas aeruginosa bacteria harboring an exemplary blaIMP-1 gene (imipenem/meropenem resistance gene). To this end, first, competent Pseudomonas aeruginosa was prepared and stored at −70° C. to be used in further experiments. Competent cells may refer to microbial cells capable of taking up foreign nucleic acid molecules from their surroundings through a process known as transformation. In order to transfer/clone the prepared siDNA into the competent Pseudomonas aeruginosa bacteria, 100 μL of an exemplary siDNA (either being coated with chitosan polymer or being bare—i.e., being uncoated) with a concentration of about 1% w/v was added to 60 μL of the competent Pseudomonas aeruginosa culture in Lysogeny Broth (LB) medium, gently mixed, and kept at 0° C. for 45 min. Then, the mixture of an exemplary siDNA (either being bare or coated with chitosan polymer) with the culture of competent Pseudomonas aeruginosa was incubated at 37° C., for 20 sec, and immediately placed on ice. […]
On the other hand, to further confirm success of an exemplary siDNA in silencing an exemplary blaIMP-1 gene in Pseudomonas aeruginosa, minimum inhibitory concentration (MIC) of imipenem was determined in an exemplary transformed Pseudomonas aeruginosa. To this end, MICs of imipenem that may inhibit the growth of an exemplary transformed Pseudomonas aeruginosa (with an exemplary siDNA) was determined after 1-4 h, 2-18 h, and 3-36 h, by broth dilution method performed in a 96-well microtiter plate. […]
To conduct an exemplary MIC assay, bacterial culture grown to log phase was adjusted to about 5×10^5 (cells/mL) in Muller-Hinton broth. Then, the antimicrobial effect of imipenem on an exemplary transformed Pseudomonas aeruginosa and an exemplary untreated Pseudomonas aeruginosa was determined by measuring turbidity of bacterial growth in each well, using a microtiter plate reader. […]

blaIMP-1 gene = assay: blaIMP-1 mRNA level by real time RT-PCR in Pseudomonas aeruginosa transformed with siDNA; assay type: cell-based; conditions: for Fold change of blaIMP-1 mRNA: 2-ΔΔCt, untreated = about 1
Protocol: In this example, the synthesized siDNA in “Example 1” (comprising exemplary sense and antisense strands set forth in SEQ ID NO: 1 and 2, respectively) was cloned into Pseudomonas aeruginosa bacteria harboring an exemplary blaIMP-1 gene (imipenem/meropenem resistance gene). To this end, first, competent Pseudomonas aeruginosa was prepared and stored at −70° C. to be used in further experiments. Competent cells may refer to microbial cells capable of taking up foreign nucleic acid molecules from their surroundings through a process known as transformation. In order to transfer/clone the prepared siDNA into the competent Pseudomonas aeruginosa bacteria, 100 μL of an exemplary siDNA (either being coated with chitosan polymer or being bare—i.e., being uncoated) with a concentration of about 1% w/v was added to 60 μL of the competent Pseudomonas aeruginosa culture in Lysogeny Broth (LB) medium, gently mixed, and kept at 0° C. for 45 min. Then, the mixture of an exemplary siDNA (either being bare or coated with chitosan polymer) with the culture of competent Pseudomonas aeruginosa was incubated at 37° C., for 20 sec, and immediately placed on ice. Then, 800 μL of Super Optimal broth (SOC) medium was added to the mixture of an exemplary siDNA (either being bare or coated with chitosan polymer) with the culture of competent Pseudomonas aeruginosa and incubated at 37° C., in a shaker incubator, for 24-30 h.
In this example, the effect of an exemplary siDNA—which was cloned into Pseudomonas aeruginosa bacteria in “Example 2”—on the expression of an exemplary blaIMP-1 gene was evaluated. In other words, the level of blaIMP-1 mRNA (messenger RNA) was measured in the transformed Pseudomonas aeruginosa bacteria with an exemplary siDNA in “Example 2”. For this purpose, the total RNA of an exemplary transformed Pseudomonas aeruginosa and an exemplary untreated Pseudomonas aeruginosa (as negative control) was extracted using a commercial RNA extraction kit, followed by conducting a real time RT-PCR (reverse transcriptase polymerase chain reaction) to determine the level of blaIMP-1 mRNA. In this example, 2-ΔΔCt method was used to determine differences in normalized expression of an exemplary blaIMP-1 gene (at transcription level) induced by an exemplary siDNA. FIG. 2 illustrates RNA expression profile 200 in an exemplary transformed Pseudomonas aeruginosa with an exemplary siDNA (measured by real time RT-PCR), consistent with one or more exemplary embodiments of the present disclosure. As shown in RNA expression profile 200, Group A refers to an exemplary transformed Pseudomonas aeruginosa bacteria grown for 4 h in the presence of imipenem, Group B refers to an exemplary transformed Pseudomonas aeruginosa bacteria grown for 18 h in the presence of imipenem, and Group C refers to an exemplary transformed Pseudomonas aeruginosa bacteria grown for 36 h in the presence of imipenem. […] Fold change of an exemplary blaIMP-1 mRNA in untreated Pseudomonas aeruginosa, Group A, Group B, and Group C—shown in RNA expression profile 200—were about 1, 0.088, 0.020, and 0.27, respectively.

## siDNA: Annealed duplex of sense strand SEQ ID NO: 1 and antisense strand SEQ ID NO: 2, each 5′ 6-FAM and 3′ TAMARA, targeting blaIMP-1 gene (sense GCCGACATCGCCTTCGGCGTTTATGATT; antisense AACGCGAGAAAGTATGAACCTAGCACTT; DNA, 5' {FAM}, 3' {TAMRA}, backbone and methylation of C not given here)
[1]
  edema and tissue damage in lung tissue (hematoxylin and eosin histology): significantly less edema and tissue damage
[2]; Group A, 4 h, Muller-Hinton broth
  MIC of imipenem in siDNA-transformed Pseudomonas aeruginosa: 2 µg/mL
[2]; Group B, 18 h, Muller-Hinton broth
  MIC of imipenem in siDNA-transformed Pseudomonas aeruginosa: 4 µg/mL
[2]; Group C, 36 h, similar to untreated negative control
  MIC of imipenem in siDNA-transformed Pseudomonas aeruginosa: 32 µg/mL
blaIMP-1 gene; Group A, 4 h in the presence of imipenem
  decrease of gene expression compared to untreated Pseudomonas aeruginosa: 11.36 folds
blaIMP-1 gene; Group A: transformed bacteria grown 4 h in the presence of imipenem
  Fold change of blaIMP-1 mRNA: ~0.088
blaIMP-1 gene; Group B, 18 h in the presence of imipenem
  decrease of gene expression compared to untreated Pseudomonas aeruginosa: 50 folds
blaIMP-1 gene; Group B: transformed bacteria grown 18 h in the presence of imipenem
  Fold change of blaIMP-1 mRNA: ~0.020
blaIMP-1 gene; Group C, 36 h in the presence of imipenem
  decrease of gene expression compared to untreated Pseudomonas aeruginosa: 3.7 folds
blaIMP-1 gene; Group C: transformed bacteria grown 36 h in the presence of imipenem
  Fold change of blaIMP-1 mRNA: ~0.27
